# Data: patent publication US20190125734A1, “COMPOSITION FOR TREATING OR PREVENTING ATOPIC DERMATITIS” (NANOEGG Research Laboratories, Inc., priority 2016, published 2019)
# Entries after “also recorded” stand apart in the source; their conditions may differ.
# How the values were obtained:
# [1] = tested on: mice with atopic dermatitis outbreak (NC/Nga, mite antigen Biostir AD); assay: Atopic dermatitis score with simultaneous mite antigen induction and test formulation application, Example 5; format: in vivo, mouse; conditions: topical 5 times a week for 3 weeks, 12 mM week 1, 24 mM week 2 and thereafter (decamethonium bromide 12 mM, twice a week in last week), induction twice a week
# Protocol: (§1) Induction with mite antigens (twice a week) and application of a test formulation (5 times a week) were simultaneously performed for 3 weeks to analyze the effect of suppressing induction of atopic dermatitis. A test formulation was used at 12 mM in week 1, and at 24 mM in week 2 and thereafter. […] A non treatment group (no induction, no application of test formulation) and solvent applied group (with induction, application of purified water) were prepared as controls.
# (1) Antagonist and agonist: hexamethonium bromide, suxamethonium chloride (Maruishi Pharmaceutical), and decamethonium bromide (Tokyo Chemical Industry) were used to compare an antagonist and agonist of a nicotinic acetylcholine receptor. […] (3) Number of tertiary amino groups: Hexamethonium bromide has two tertiary amino groups within the molecule. This was compared to hexyltrimethylammonium bromide (Wako Pure Chemical; hereinafter, referred to as Hexyl-TAB) having one tertiary amino group within the molecule and an alkyl group with 6 carbons. (4) Carbon chain length: Hexamethonium bromide was compared with decamethonium bromide (number of carbons 10) which has a carbon chain length that is longer than hexamethonium bromide (number of carbons 6), and compared with tetramethylammonium bromide (Wako Pure Chemical; number of carbons: 1; hereinafter, referred to as TAB), hexyltrimethylammonium bromide (number of carbons: 6; hereinafter, referred to as Hexyl-TAB), and cetyltrimethylammonium bromide (Wako Pure Chemical; number of carbons: 16; hereinafter, referred to as Cetyl-TAB), which have one tertiary amino group within the molecule and a different carbon chain length in the alkyl group.
# [2] = tested on: atopic dermatitis model mice (NC/Nga, mite antigen Biostir AD); assay: Evaluation of drug efficacy after inducing dermatitis (AD score, pictures of the back), Example 1; format: in vivo, mouse; conditions: female NC/Nga mice, topical 12 mM, days 3 and 7
# Protocol: 10 week old NC/Nga mice (Charles River Laboratories Japan) were used as atopic dermatitis model animals. A mite (Dermatophagoides farina) antigen, i.e., Biostir AD (Wako Pure Chemical), was used to induce dermatitis. Model mice were prepared by the following procedure.
# 1. The back of mice was shaved. A hair removal cream was used only for the first time. 2. To destroy the skin barrier, 150 μL of 4% SDS was applied and dried for 2 to 3 hours (this step was omitted for the first time). 3. To stimulate immunity, 100 mg of Biostir AD was applied to the back and the left and right auricles of the mice. 4. These steps were performed twice a week.
# Scoring was performed according to the method described in the package insert of Biostir AD. Four endpoints were each evaluated as 0 to 3 points. The total score for the endpoints was used as the AD score. The following Table 1 summarizes the scores for each endpoint.
# Acridinium bromide (Wako Pure Chemical) and scopolamine hydrobromide trihydrate (Tokyo Chemical Industry) were used as an inhibitor of a muscarinic acetylcholine receptor. Hexamethonium bromide (sigma-aldrich) and dextromethorphan hydrobromide monohydrate (Wako Pure Chemical) were used as an inhibitor of a nicotinic acetylcholine receptor. Dimethyl sulfoxide (DMSO, Wako Pure Chemical), saline (Otsuka Pharmaceutical), and purified water were used as solvents. […]
# [3] = tested on: atopic dermatitis model mice (NC/Nga, mite antigen Biostir AD); assay: Drug efficacy with dermatitis induction in parallel (AD score, pictures of the back), Example 3; format: in vivo, mouse; conditions: male NC/Nga mice, topical 12 mM, days 3, 7, 11
# Protocol: Atopic dermatitis model mice were prepared and scored in the same manner as Example 1. The same test formulations as those in Example 1 were used.
# Male NC/Nga mice (Charles River Laboratories Japan) induced to have atopic dermatitis were used. A test formulation was applied to the back once a day, 5 days a week (Monday to Friday), for a total of 10 times. 100 μL of the test formulation was applied to the back, and 25 μL was applied to each of the left and right auricles. The back was shaved prior to administration on Monday and Thursday to evaluate dermatitis scores. Atopic dermatitis was then induced only on Mondays every week to maintain dermatitis. Mice were euthanized after 11 days from the initial administration, and then the skin tissue was sampled.
# [4] = tested on: skin of atopic dermatitis patients; assay: Replica method for goose bump-like skin symptoms, Example 6; format: in vivo, human; conditions: 12 mM applied to back part of the neck of atopic dermatitis patients; 5 to 10 minutes after application vs before
# Protocol: Hexamethonium (12 mM) was applied to (back part of) the neck of atopic dermatitis patients to obtain replica images of skin before application and after 5 to 10 minutes from application. The replica images were collected by applying silicon resin (SILFLO) so as to cover the skin with outbreak of atopic dermatitis and peeling of the cured silicon from the skin after 5 minutes. Light was irradiated onto the collected replicas from one direction to compare and examine, and take pictures of, the unevenness of the skin surface.
# [5] = tested on: atopic dermatitis model mice (NC/Nga, mite antigen Biostir AD); assay: Therapeutic effect from oral administration, dermatitis scores, Example 8; format: in vivo, mouse; conditions: 150 μL of 60 mM once a day, 5 times a week, total 10 times, day 10
# Protocol: 10 week old NC/Nga mice (Charles River Laboratories Japan) were used as atopic dermatitis model animals. A mite antigen (Biostir AD, Wako Pure Chemical) was used to induce dermatitis. Model mice were prepared and scored according to the method described in the package insert of Biostir AD (same as Example 1).
# As an inhibitor of a nicotinic acetylcholine receptor, hexamethonium bromide (hereinafter, hexamethonium; sigma-aldrich) was used. The inhibitor was dissolved in purified water and prepared to have a final concentration of 60 mM. Purified water (DW) was used as a negative control.
# 150 μL of a test formulation was orally administered to atopic dermatitis induced mice once a day, 5 times a week, for a total of 10 times. Dermatitis scores were evaluated after 0 and 10 days from administration. Mean change from day 0 was compared. Atopic dermatitis was induced with mite antigens only on Mondays every week to maintain the symptom.
# mast cells = assay: Activity and migration of mast cells (toluidine blue stain of back skin), Example 2; format: in vivo, mouse; conditions: severe area; saline group about 40%
# Source text: Solifenacin succinate (Tokyo Chemical Industry), acridinium bromide (Wako Pure Chemical) and scopolamine hydrobromide trihydrate (Tokyo Chemical Industry) were used as an inhibitor of a muscarinic acetylcholine receptor. Tubocurarine chloride pentahydrate (Tokyo Chemical Industry), gallamintriethiodide (sigma-aldrich), hexamethonium bromide (sigma-aldrich), dextromethorphan hydrobromide monohydrate (Wako Pure Chemical), and α-bungarotoxin (alomone labs) were used as an inhibitor of a nicotinic acetylcholine receptor. Dimethyl sulfoxide (DMSO, Wako Pure Chemical) saline (Otsuka Pharmaceutical), and purified water were used as solvents.
# The back skin of sampled atopic dermatitis model mice was immobilized with neutral formalin and embedded in paraffin. A 4 μm thick tissue segment was prepared therefrom, and mast cells were stained with toluidine blue stain. The stained tissue segment was captured with a microscope. […] The areas of only collagen fiber sites in the tissue segment images were measured (removing areas of the epidermal layer, mast cells, and muscle cells) and compared the mast cell count per unit area to the degree of degranulation.
# [6] = Toxicity observed during application, Example 5; format: in vivo, mouse; conditions: topical application to NC/Nga mice, 12 mM week 1
# Protocol: as §1, with “Mice (NC/Nga, 10 week old) were applied with a mite antigen (Biostir AD) twice a week for 4 weeks to prepare mice with atopic dermatitis outbreak as in Example 1. Induction” for “Induction”, “controls. Scoring was performed in the same manner as Example 1.” for “controls.”
Compound,atopic dermatitis score (mean change) relative to solvent administered group (DW) [1],other results
"CCCCCCCCCCCCCCCC[N+](C)(C)C.[Br-] [Cetyl-TAB, Cetyltrimethylammonium bromide]",exacerbating action,
"C[N+](C)(C)CCCCCC[N+](C)(C)C.[Br-].[Br-] [hexamethonium bromide, Hexamethonium Bromide]",elevation in atopic dermatitis scores was suppressed,therapeutic effect (AD scores and ΔAD scores) [2]: relatively high therapeutic effect; therapeutic effect (AD scores and ΔAD scores) [3]: relative high therapeutic effect; degree of protrusion of skin pores (replica images) [4]: degree of protrusion of skin pores has subsided to be less goose bump-like; improvement in dermatitis scores (mean change from day 0) [5]: Improvement in the dermatitis scores was observed
"NCCCCCCN [HMDA, Hexamethylenediamine]",An effect of suppression was not found,
Tetramethylammonium Bromide [TAB],effect of suppressing atopic dermatitis,
"C[N+](C)(C)CCOC(=O)CCC(=O)OCC[N+](C)(C)C [Suxamethonium bromide, suxamethonium chloride]",reduce atopic dermatitis scores,
"COc1cc2c3cc1Oc1cc(ccc1O)C[C@@H]1c4c(cc(OC)c(O)c4Oc4ccc(cc4)C[C@@H]3N(C)CC2)CC[N+]1(C)C [tubocurarine, Tubocurarine chloride pentahydrate]",,ratio of degranulated mast cells to all mast cells (mast cells): about 33%
"C[N+](C)(C)CCCCCCCCCC[N+](C)(C)C [decamethonium bromide, Decamethonium Bromide]",reduce atopic dermatitis scores,atopic dermatitis score (mean change) relative to solvent administered group (DW) ([1]; listed as Decamethonium bromide): action to exacerbate atopic dermatitis was confirmed; toxicity [6]: strong toxicity
"CCCCCC[N+](C)(C)C.[Br-] [Hexyl-TAB, Hexyltrimethylammonium Bromide]","effect of suppressing atopic dermatitis, although slightly weaker than hexamethonium bromide; also recorded: effect of suppressing atopic dermatitis",
